Where no end group is shown, it is not given here.
Key:
HeLa S6 cells [1] = assay: nuclear transport of BSA covalently linked to peptide in digitonin permeabilized cells; type: cell-based; details: 600 nM peptide/BSA-BODIPY, 30 min, fluorescence microscope
HeLa S6 cells [2] = assay: fluorescence in situ hybridisation of plasmid pEGFP after transfection (fluorescence microscopy and CLSM); type: cell-based; details: for location of plasmid DNA by CLSM: confocal laser scanning microscopy; for nuclear localization of plasmid DNA / cells showing signals in the nuclear region: fluorescence microscopy
16HBE14o-cells [3] = assay: inhibition of gene transfer by excess of free peptide, luciferase assay; type: cell-based; details: 30 fold molar excess of free peptide added 20 min before the complexes
16HBE14o-cells [4] = assay: luciferase transfection assay with vector/DNA (CMVL-W) complexes; type: cell-based
16HBE14o cells = assay: tracking of DNA-TOTO-3/(PKKKRKVG)4-FITC complexes on their way to the nucleus; type: cell-based; details: 100% confluent cells, 5 μg CMVL-W, 24 μg peptide (N/P 8)
DNase I = assay: stability of vector/DNA complexes against DNase I digestion, agarose gel; type: physicochemical; details: higher enzyme concentrations (2.5, 5, 10 U DNase I), 1 h at 37° C., 3 μg pEGFP
16HBE14o-cells [5] = assay: proportion of transgene (GFP) expressing cells by flow cytometry; type: cell-based; details: 1 μg pEGFP/(PKKKRKVG)4 complexes (N/P 8), 24 hours
Description: (A, B, D, E) Flow cytometry of 16HBE14o-cells transfected with DNA (pEGFP) or DNA complexed with (PKKKRKVG)4. Transfection was stopped after 24 hours. Cells were treated with trypsin and resuspended in medium. FCS: Forward scatter. FH-1: green channel for the GFP signal. (A, B) Control. Cells were only transfected with 1 μg pEGFP. Mean: 5.66. M1: 96% of total cells. M2: 4% of total cells. (D, E) Transfection with 1 μg pEGFP/(PKKKRKVG)4 complexes (N/P 8). Mean: 10.25. M1: 55% of total cells. M2: 45% of total cells. Near half the cell population expresses green fluorescence protein. (C, F) Fluorescence microscopy images of HeLa S6 cells transfected with (C) 1 μg pEGFP or (F) 1 μg pEGFP complexed with (PKKKRKVG)4 (N/P 8). Images were taken with a 40× objective (exposure time: 2 sec).
It was examined how many cells express the transgene product. 16HBE14o-cells were transfected with 1 μg pEGFP/(PKKKRKVG)4 complexes N/P 8 (24 hours) and measured by flow cytometry.

COS7 cells [6] = assay: transfection efficiency at 4° C. compared with 37° C.; type: cell-based; details: 4 h transfection, COS7, luciferase after 24 h
Description: Cells were transfected with 1 μg of CMVL-W complexed with C(YGRKKRRQRRRG)24 at N/P=10 for 4 h at 4° C. or at 37° C. Luciferase activity was measured (10 sec) after 24 h.
At low temperatures such as 4° C. energy-dependent processes like the endosomal uptake are suppressed. For this reason transfection efficiency at 4° C. could be an indicator for the extend of endosomal uptake which takes place during the transfection period. Transfection was performed in the way as described above but for the 4° C. experiment the 24 well plate was incubated in a cool room at 4° C. for 4 h.

COS7 cells [7] = assay: effect of peptide on gene transfer mediated by PEI, fractured Dendrimers and Lipofectamine; type: cell-based

(PKKKRKVG)4: tetramer of the wild-type SV40 large T-antigen NLS PKKKRKV with a glycin added at the end of each NLS (SEQ ID NO: 5) (also: tetramer of PKKKRKVG, linkage not given here)
nuclear transport of covalently coupled BSA-BODIPY (HeLa S6 cells [1]): transports the coupled BSA into the nucleus | location of plasmid DNA by CLSM (HeLa S6 cells [2]; 2 hours): already plasmid DNA in the nucleus | nuclear localization of plasmid DNA (HeLa S6 cells [2]; 2 hours): plasmid DNA could be detected within the nuclear region | location of plasmid DNA by CLSM (HeLa S6 cells [2]; 24 hours): accumulated in the nucleus | cells showing signals in the nuclear region (HeLa S6 cells [2]; 24 hours): 68.9% | inhibition of gene transfer of DNA/(PKKKRKVG)4 complexes by free peptide (16HBE14o-cells [3]): complete blockade of gene transfer | cell transfection compared with DNA/Dendrimer-complexes (16HBE14o-cells [4]): cell transfection as high as with DNA/Dendrimer-complexes | cell transfection higher as with DNA/poly-L-lysine 2.9 kD/INF7a complexes (16HBE14o-cells [4]): 1000 fold | enhancement of cell transfection compared to studies without endosomolytic agents (16HBE14o-cells [4]): 10 fold | transfection rates compared with different non-viral vectors (16HBE14o-cells [4]; 1 μg CMVL-W, 4.8 μg (PKKKRKVG)4 (N/P 8), luciferase after 24 h): almost as high transfection rates as with Dendrimer/DNA complexes | increase of relative light units (RLU) per mg cell protein in comparison to poly-L-lysine (16HBE14o-cells [4]; 1 μg CMVL-W, vs poly-L-lysine 2.9 kD/DNA complexes, luciferase after 24 h): 100 fold | transfection results in comparison to transfections without (PKKKRKVG)4 (16HBE14o-cells [4]; 100% confluent cells, CMVL-W/Dendrimer complexes plus (PKKKRKVG)4): 10 fold | effect of added (PKKKRKVG)4 on transfection efficiency of PEI/CMVL-W and Dendrimer/CMVL-W complexes (16HBE14o-cells [4]; added in increasing concentrations to polymer/DNA complexes): significant increase of transfection efficiency | localization of complexes after 4 h (16HBE14o cells; 4 h): most of the complexes were outside the nucleus | localization of peptide and DNA after 30 h (16HBE14o cells; 30 h): could be found in the nucleus | DNA protection of complexed DNA against DNase I digestion (DNase I): still can bee seen | M1 of total cells (16HBE14o-cells [5]): 55% | M2 of total cells (16HBE14o-cells [5]): 45% | Mean (GFP signal, flow cytometry) (16HBE14o-cells [5]): 10.25 | cells showing a GFP signal (16HBE14o-cells [5]): Approximately 50%

C(YGRKKRRQRRRG)2: dimer of HIV-1 TAT protein transduction domain YGRKKRRQRRR with G, N-terminal C (SEQ ID NO: 30) (CYGRKKRRQRRRG; also: dimer: C(YGRKKRRQRRRG)2, linkage not given here)
decrease of transfection efficiency at 4° C. compared to 37° C. (COS7 cells [6]): 19 fold | effect on gene transfer mediated by PEI (COS7 cells [7]; peptide N/P=1, then PEI 25 kD N/P 10): enhances gene transfer | effect on gene transfer mediated by fractured dendrimers (COS7 cells [7]; peptide N/P=1, then fractured Dendrimer N/P 4.5): enhances gene transfer

wheat germ agglutinin
nuclear transport of covalently coupled BSA-BODIPY (HeLa S6 cells [1]): no signal was seen in the nucleus

(PKTKRKVG)4: tetramer containing mutant large T-NLS (SEQ ID NO: 6); threonin mutant known to be transport deficient [reference compound]
nuclear transport of covalently coupled BSA-BODIPY (HeLa S6 cells [1]): no signal was seen in the nucleus | location of plasmid DNA by CLSM (HeLa S6 cells [2]; 2 hours): arranged around the nuclear membrane | nuclear localization of plasmid DNA (HeLa S6 cells [2]; 2 hours): nuclear localization of plasmid DNA was not seen | location of plasmid DNA by CLSM (HeLa S6 cells [2]; 24 hours): arranged around the nuclear membrane | cells showing signals in the nuclear region (HeLa S6 cells [2]; 24 hours): 14.7% | gene transfer efficiency compared with (PKKKRKVG)4/DNA complexes (16HBE14o-cells [4]): significantly lower gene transfer efficiency

— patent US20030125242A1, “Polypeptides comprising multimers of nuclear localization signals or of protein transduction domains and their use for transferring molecules into cells” (priority 1999, published 2003)
